In patent US20250073309A1, “METHODS OF TREATMENT OF PEDIATRIC PUBERTY USING ORAL FORMULATIONS OF LEUPROLIDE” (Enteris Biopharma, Inc., priority 2021, published 2025):

Conditions: female, human, in vivo, sc, 1 mg
Description: The presently disclosed embodiments may include a technology platform employing enteric coating and permeation enhancement to enable systemic delivery of peptides via the oral route. To determine whether the oral formulation described herein enables systemic delivery of therapeutic doses of the GnRH agonist leuprolide via oral route, a randomized, four-period, four-treatment, crossover pharmacokinetic and food effect study was conducted in 14 healthy female volunteers, which compared PK profiles following single administrations of 1 and 4 mg of leuprolide—the latter under both fasting and fed conditions—to that of a single subcutaneous injection of 1 mg of leuprolide acetate.
Study objectives were to assess the relative bioavailability, dose proportionality, safety and tolerability of orally-administered leuprolide, as well as the effect of food on drug absorption. Frequent blood sampling for 24 hours followed each dose, and each treatment was separated by 7 days. […] The ‘fed’ condition involved consumption of a high-fat, high-calorie meal 30 minutes prior to drug administration.

Mean AUC0-24h: 163.0 ± 18.8 ng·h/mL
Mean Cmax: 59.4 ± 9.1 ng/mL
Mean Tmax: 3.49 ± 0.23 h
Structure (SMILES): CCNC(=O)[C@@H]1CCCN1C(=O)[C@H](CCCNC(=N)N)NC(=O)[C@H](CC(C)C)NC(=O)[C@@H](CC(C)C)NC(=O)[C@H](Cc1ccc(O)cc1)NC(=O)[C@H](CO)NC(=O)[C@H](Cc1c[nH]c2ccccc12)NC(=O)[C@H](Cc1c[nH]cn1)NC(=O)[C@@H]1CCC(=O)N1 [sc leuprolide, leuprolide acetate]
